What was measured:
[1] = target: T1, full length BRD4 ZsGreen fusion protein (Homo sapiens, UniProt O60885); experiment: Bromodomain chromatin release assay, BRD4 (U2OS, high content imaging); format: cell-based; details: 2 hr, n = 2 biological replicates ± SEM, read-out: IC50 (μM), BRD4 chromatin release (EC50)
T1 construct: CBP: CBP-bromodomain/BRD9; BRD4: full length BRD4; expressed in transfected cells
Method: As described previously ([Huang et al., 2014]), this assay monitors the compound-dependent release and aggregation of a fusion protein consisting of a bromodomain and the fluorescent protein ZsGreen. For the BRD4 chromatin release assay, U2OS cells capable of inducibly expressing the full-length BRD4 protein in fusion with ZsG were generated using the pLVT3G/ZsGreen-BRD4/TO3G vector and maintained in blasticidin at 15 μg/ml. […] Therefore, the bromodomain (BD) of CBP was cloned into full length BRD9 (replacing the BRD9 BD) in frame with a ZsGreen fluorescent tag (ZsG). U2OS cells capable of inducibly expressing the ZsGreen-CBPBD fusion protein were generated by lentiviral delivery of the pLVT3G/BRD9-ZsG-CBPBD/TO3G vector, which contains both the inducible fusion protein and the tet transactivator. Cells were selected and maintained in the presence of 15 μg/ml blasticidin. 5000 cells/well were seeded in 384-well imaging plates in the presence of 2 μg/ml doxycycline to induce the expression of ZsG-fusion proteins. After 16 hr of incubation with doxycycline, fresh media containing serial dilution of compounds were added to the cells for 2 hr at 37°C. Cells were fixed with 4% paraformaldehyde (PFA) dissolved in PBS for 15 min at room temperature. Images of cells were acquired using ImageXpress Micro (Molecular Devices, Inc.; Sunnyvale, CA) and processed with the Transfluor Module of MetaXpress software. Average pits per cell values were obtained from four adjacent images in each well with two technical replicates for each compound concentration. Dose-response curves were generated by plotting the average pits per cell values at each dose and EC50 values were calculated by a four-parameter non-linear regression model in GraphPad Prism.

ASH1L bromodomain = target: T2, ASH1L bromodomain (Homo sapiens, UniProt Q9NR48); experiment: Differential scanning fluorimetry; format: binding; details: ASH1L 4–8 μM, compound 20 μM; read-out: DTm
T2 construct: Differential scanning fluorimetry was carried out with the indicated isolated bromodomains at 4–8 μM
Method: (§1) Variable buffer compositions were used for the different bromodomain proteins with 12X SYPRO orange dye, 20 μM of the compounds or equivalent percentage of DMSO, and 4–8 µM of the indicated protein. […] The melting temperature (Tm) for each sample was determined using the ViiA7 software (version 1.2.2) and the ΔTm was calculated by subtracting the Tm of the control from the Tm of the compound treated sample.

BAZ1A bromodomain = target: T3, BAZ1A bromodomain (Homo sapiens, UniProt Q9NRL2); experiment: Differential scanning fluorimetry; format: binding; details: BAZ1A 4–8 μM, compound 20 μM; read-out: DTm
T3 construct: Differential scanning fluorimetry was carried out with the indicated isolated bromodomains at 4–8 μM
T3 sequence (Q9NRL2 1430-1533 limits assumed): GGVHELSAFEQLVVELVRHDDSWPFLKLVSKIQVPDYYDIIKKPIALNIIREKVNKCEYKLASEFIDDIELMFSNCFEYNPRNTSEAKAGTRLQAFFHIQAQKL
Method: as §1

BAZ2B bromodomain = target: T4, BAZ2B bromodomain (Homo sapiens, UniProt Q9UIF8); experiment: Differential scanning fluorimetry; format: binding; details: BAZ2B 4–8 μM, compound 20 μM; read-out: DTm
T4 construct: Differential scanning fluorimetry was carried out with the indicated isolated bromodomains at 4–8 μM
T4 sequence (Q9UIF8 2060-2164 limits assumed): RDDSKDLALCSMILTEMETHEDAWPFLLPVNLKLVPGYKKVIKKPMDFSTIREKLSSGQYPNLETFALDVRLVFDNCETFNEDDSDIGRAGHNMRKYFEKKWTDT
Method: as §1

BPTF bromodomain = target: T5, BPTF bromodomain (Homo sapiens, UniProt Q12830); experiment: Differential scanning fluorimetry; format: binding; details: BPTF 4–8 μM, compound 20 μM; read-out: DTm
T5 construct: Differential scanning fluorimetry was carried out with the indicated isolated bromodomains at 4–8 μM
Method: as §1

BRD1 bromodomain = target: T6, BRD1 bromodomain (Homo sapiens, UniProt O95696); experiment: Differential scanning fluorimetry; format: binding; details: BRD1 4–8 μM, compound 20 μM; read-out: DTm
T6 construct: Differential scanning fluorimetry was carried out with the indicated isolated bromodomains at 4–8 μM
T6 sequence (O95696 562-666 limits assumed): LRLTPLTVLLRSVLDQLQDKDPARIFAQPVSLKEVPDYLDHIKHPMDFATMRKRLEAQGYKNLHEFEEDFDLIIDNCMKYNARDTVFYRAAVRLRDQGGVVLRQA
Method: as §1

BRD4 bromodomain = experiment: Differential scanning fluorimetry; format: binding; details: BRD4 4–8 μM, compound 20 μM
Method: as §1

BRD7 bromodomain = target: T7, BRD7 bromodomain (Homo sapiens, UniProt Q9NPI1); experiment: Differential scanning fluorimetry; format: binding; details: BRD7 4–8 μM, compound 20 μM; read-out: DTm
T7 construct: Differential scanning fluorimetry was carried out with the indicated isolated bromodomains at 4–8 μM
T7 sequence (Q9NPI1 131-235 limits assumed): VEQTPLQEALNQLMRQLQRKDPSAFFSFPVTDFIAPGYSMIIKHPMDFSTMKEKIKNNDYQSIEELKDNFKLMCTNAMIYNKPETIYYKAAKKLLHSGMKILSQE
Method: as §1

BRD8 bromodomain = experiment: Differential scanning fluorimetry; format: binding; details: BRD8 4–8 μM, compound 20 μM
Method: as §1

BRD9 bromodomain = target: T8, BRD9 bromodomain (Homo sapiens, UniProt Q9H8M2); experiment: Differential scanning fluorimetry; format: binding; details: BRD9 4–8 μM, compound 20 μM; read-out: DTm
T8 construct: Differential scanning fluorimetry was carried out with the indicated isolated bromodomains at 4–8 μM
T8 sequence (Q9H8M2 136-240 limits assumed): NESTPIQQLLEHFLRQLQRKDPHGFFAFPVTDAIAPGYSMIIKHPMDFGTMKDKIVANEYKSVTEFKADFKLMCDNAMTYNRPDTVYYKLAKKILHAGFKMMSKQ
Method: as §1

BRG1 bromodomain = target: T9, BRG1 bromodomain (Homo sapiens, UniProt P51532); experiment: Differential scanning fluorimetry; format: binding; details: BRG1 4–8 μM, compound 20 μM; read-out: DTm
T9 construct: Differential scanning fluorimetry was carried out with the indicated isolated bromodomains at 4–8 μM
T9 sequence (P51532 1453-1564 limits assumed): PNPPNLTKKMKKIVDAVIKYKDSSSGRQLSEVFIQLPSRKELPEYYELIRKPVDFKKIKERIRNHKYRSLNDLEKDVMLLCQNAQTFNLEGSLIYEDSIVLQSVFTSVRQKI
Method: as §1

BRPF1 bromodomain = target: T10, BRPF1 bromodomain (Homo sapiens, UniProt P55201); experiment: Differential scanning fluorimetry; format: binding; details: BRPF1 4–8 μM, compound 20 μM; read-out: DTm
T10 construct: Differential scanning fluorimetry was carried out with the indicated isolated bromodomains at 4–8 μM
T10 sequence (P55201 628-732 limits assumed): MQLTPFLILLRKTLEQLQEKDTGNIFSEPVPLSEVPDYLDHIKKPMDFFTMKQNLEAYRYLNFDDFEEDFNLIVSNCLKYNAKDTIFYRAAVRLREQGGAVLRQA
Method: as §1

BRPF3 bromodomain = target: T11, BRPF3 bromodomain (Homo sapiens, UniProt Q9ULD4); experiment: Differential scanning fluorimetry; format: binding; details: BRPF3 4–8 μM, compound 20 μM; read-out: DTm
T11 construct: Differential scanning fluorimetry was carried out with the indicated isolated bromodomains at 4–8 μM
T11 sequence (Q9ULD4 589-693 limits assumed): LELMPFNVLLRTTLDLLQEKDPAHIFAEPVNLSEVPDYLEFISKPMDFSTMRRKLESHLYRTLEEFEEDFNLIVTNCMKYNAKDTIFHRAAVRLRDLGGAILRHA
Method: as §1

CECR2 bromodomain = target: T12, CECR2 bromodomain (Homo sapiens, UniProt Q9BXF3); experiment: Differential scanning fluorimetry; format: binding; details: CECR2 4–8 μM, compound 20 μM; read-out: DTm
T12 construct: Differential scanning fluorimetry was carried out with the indicated isolated bromodomains at 4–8 μM
T12 sequence (Q9BXF3 434-538 limits assumed): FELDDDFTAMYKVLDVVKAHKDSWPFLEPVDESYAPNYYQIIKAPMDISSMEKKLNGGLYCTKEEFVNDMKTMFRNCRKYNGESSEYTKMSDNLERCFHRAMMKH
Method: as §1

GCN5 bromodomain = GCN5 bromodomain (Homo sapiens, UniProt Q92830); experiment: Differential scanning fluorimetry; format: binding; details: GCN5 4–8 μM, compound 20 μM; read-out: DTm
Chain of GCN5 bromodomain (Q92830 728-832 limits assumed): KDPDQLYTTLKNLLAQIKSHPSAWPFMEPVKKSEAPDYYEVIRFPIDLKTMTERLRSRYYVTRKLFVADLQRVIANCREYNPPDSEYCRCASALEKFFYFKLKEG
Method: as §1

PCAF bromodomain = target: T13, PCAF bromodomain (Homo sapiens, UniProt Q92831); experiment: Differential scanning fluorimetry; format: binding; details: PCAF 4–8 μM, compound 20 μM; read-out: DTm
T13 construct: Differential scanning fluorimetry was carried out with the indicated isolated bromodomains at 4–8 μM
T13 sequence (Q92831 723-827 limits assumed): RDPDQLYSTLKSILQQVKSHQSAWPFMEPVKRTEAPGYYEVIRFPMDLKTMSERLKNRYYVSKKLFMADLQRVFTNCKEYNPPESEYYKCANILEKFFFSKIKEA
Method: as §1

TAF1 BD1 BD2 = target: T14, TAF1 BD1 BD2 (Homo sapiens, UniProt P21675); experiment: Differential scanning fluorimetry; format: binding; details: TAF1 BD1 BD2 4–8 μM, compound 20 μM; read-out: DTm
T14 construct: Differential scanning fluorimetry was carried out with the indicated isolated bromodomains at 4–8 μM
T14 sequence (P21675 1397-1628 limits assumed): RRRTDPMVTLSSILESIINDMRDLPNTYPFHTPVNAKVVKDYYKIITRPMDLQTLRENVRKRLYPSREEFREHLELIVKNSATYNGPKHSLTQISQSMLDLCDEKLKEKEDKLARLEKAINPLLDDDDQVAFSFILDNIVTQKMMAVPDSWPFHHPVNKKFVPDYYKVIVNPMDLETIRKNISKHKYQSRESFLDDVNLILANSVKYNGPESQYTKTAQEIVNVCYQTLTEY
Method: as §1

TRIM24 bromodomain = target: T15, TRIM24 bromodomain (Homo sapiens, UniProt O15164); experiment: Differential scanning fluorimetry; format: binding; details: TRIM24 4–8 μM, compound 20 μM; read-out: DTm
T15 construct: Differential scanning fluorimetry was carried out with the indicated isolated bromodomains at 4–8 μM
T15 sequence (O15164 899-1004 limits assumed): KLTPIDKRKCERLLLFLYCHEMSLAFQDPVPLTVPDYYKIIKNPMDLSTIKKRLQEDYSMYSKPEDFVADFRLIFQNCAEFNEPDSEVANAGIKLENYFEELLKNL
Method: as §1

WDR9 bromodomain = experiment: Differential scanning fluorimetry; format: binding; details: WDR9 4–8 μM, compound 20 μM
Method: as §1

Nalm6 = experiment: Viability, resazurin, 6 days; format: cell-based; details: Homo sapiens, NALM-6, 144 h, Nalm6, ALL
Method: Cells were plated at 5000–10000 cells per well of 96-well plates containing titrations of the compounds as indicated. After incubation, the cells were incubated with 500 μg/ml resazurin (Sigma) in PBS for 2–8 hr, and fluorescence was measured (Ex 530 nm, Em 590 nm). Cell cycle analysis was performed as described previously ([Mertz et al., 2011]). For visualization, DNA content histograms were generated with GraphPad Prism. Dose-response curves were generated by plotting the normalized percent growth, percent sub-G1 and percent increase in G0/G1 at each dose values. GI50 values were determined as the concentration at which viability was 50% of the DMSO value and calculated by a four-parameter non-linear regression model in GraphPad Prism.

Compound | EC50 [1] [µM] | ΔTm at 20 µM (ASH1L bromodomain) [°C] | ΔTm at 20 µM (BAZ1A bromodomain) [°C] | ΔTm at 20 µM (BAZ2B bromodomain) [°C] | ΔTm at 20 µM (BPTF bromodomain) [°C] | ΔTm at 20 µM (BRD1 bromodomain) [°C] | DTm (BRD4 bromodomain) [°C] | ΔTm at 20 µM (BRD7 bromodomain) [°C] | DTm (BRD8 bromodomain) [°C] | ΔTm at 20 µM (BRD9 bromodomain) [°C] | ΔTm at 20 µM (BRG1 bromodomain) [°C] | ΔTm at 20 µM (BRPF1 bromodomain) [°C] | ΔTm at 20 µM (BRPF3 bromodomain) [°C] | ΔTm at 20 µM (CECR2 bromodomain) [°C] | ΔTm at 20 µM (GCN5 bromodomain) [°C] | ΔTm at 20 µM (PCAF bromodomain) [°C] | ΔTm at 20 µM (TAF1 BD1 BD2) [°C] | ΔTm at 20 µM (TRIM24 bromodomain) [°C] | DTm (WDR9 bromodomain) [°C] | GI50 (Nalm6) [µM]
CCC(=O)N1CCOc2c(cc(-c3ccc(OC)c(OC)c3)cc2OC[C@H]2CCCN(C)C2)C1 [I-CBP112] | > 20 | 0.04 | 0.41 | 0.28 | 0.93 | -0.44 | 2.12 | 0.44 | 0.88 | 0.37 | 0.38 | 0.11 | 0.75 | 1.46 | 0.14 | -0.08 | 0.12 | 0.32 | 0.04 | –
COc1ccc(CCc2nc3cc(-c4c(C)noc4C)ccc3n2C[C@H](C)N2CCOCC2)cc1Cl [SGC-CBP30] | 18.7 ± 1.2 | 0.04 | 0.18 | -0.06 | 0.69 | 0.26 | 2.01 | 0.5 | 0.76 | 0.37 | 0.27 | 0.11 | -0.18 | 0.76 | -0.09 | -0.08 | 0.12 | 0.43 | -0.08 | 3.86
